From patent US20230159509A1 (Amathus Therapeutics, Inc., priority 2020, published 2023)

Biological target: T1, TRAP1 enzyme (Homo sapiens, UniProt Q12931)
T1 construct: 150 nM Trap1 enzyme was incubated with various concentrations of the test compound
T1 sequence (Q12931 60-704): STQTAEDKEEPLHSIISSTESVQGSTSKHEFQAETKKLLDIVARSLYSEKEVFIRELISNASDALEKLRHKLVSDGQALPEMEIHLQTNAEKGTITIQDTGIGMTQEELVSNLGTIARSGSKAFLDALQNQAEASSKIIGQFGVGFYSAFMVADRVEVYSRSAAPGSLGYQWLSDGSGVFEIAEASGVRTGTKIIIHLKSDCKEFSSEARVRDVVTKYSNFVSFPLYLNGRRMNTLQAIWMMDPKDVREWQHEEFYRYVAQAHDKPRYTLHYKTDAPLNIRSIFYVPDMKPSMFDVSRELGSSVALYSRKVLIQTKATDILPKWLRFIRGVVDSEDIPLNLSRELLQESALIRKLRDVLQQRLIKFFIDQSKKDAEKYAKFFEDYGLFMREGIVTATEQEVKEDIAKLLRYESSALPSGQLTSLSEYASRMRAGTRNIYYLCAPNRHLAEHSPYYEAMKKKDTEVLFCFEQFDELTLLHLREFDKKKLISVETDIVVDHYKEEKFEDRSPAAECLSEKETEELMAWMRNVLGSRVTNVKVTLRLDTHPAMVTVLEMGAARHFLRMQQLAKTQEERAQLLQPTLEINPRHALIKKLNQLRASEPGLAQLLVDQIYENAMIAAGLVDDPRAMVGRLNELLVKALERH
Assay: ADP Glo assay of TRAP1 ATPase activity
Format: biochemical
Details: for EC50: concentration for half maximal activation, read-out: ADP GLO DRC: GeoMean EC50; for Emax: maximal percent activation, read-out: ADP GLO DRC: Mean Emax; for activation at 50 µM: 1 h, compound concentration 50 μM, read-out: ADP-Glo Percent Activation at 50 μM
Outline: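 ADP-Glo luminescence quantifying ADP from 150 nM TRAP1 preincubated 30 min at 37° C with compound (0.79–100 μM), then 20 μM ATP for 60 min at 37° C. Buffer: 25 mM Pipes pH 7.5, 40 mM KCl, 0.05 mM MgCl2, EGTA, BSA, detergents. ADP from ATP/ADP standard curve; Emax and EC50 from sigmoidal fit.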

`COc1ncc(NC(=O)c2coc(-c3ccccc3)n2)cc1S(=O)(=O)Nc1ncc(Cl)cc1C` [compound 1966, N-(5-(N-(5-chloro-3-methylpyridin-2-yl)sulfamoyl)-6-methoxypyridin-3-yl)-2-phenyloxazole-4-carboxamide] showed an EC50 of 20 to 100 µM and an Emax of 160 to 199%.
`COc1ncc(NC(=O)c2c(C)nn(C)c2Cl)cc1S(=O)(=O)Nc1c(C)cccc1C` [compound 2582] gave an activation at 50 µM of 120 to 150%.
Work on `COc1ncc(NC(=O)c2cnn(C)c2C)cc1S(=O)(=O)Nc1c(C)cccc1C` [compound 2776] yielded an activation at 50 µM of 120 to 150%.
`COc1ncc(NC(=O)c2ncc(-c3ccccc3)o2)cc1S(=O)(=O)Nc1cc(C)n(C(C)C)n1` [compound 1571] was tested, and the EC50 was 10 to 20 µM and the Emax was 160 to 199%.
With `COc1cccc(C(=O)Nc2cnc(OC)c(S(=O)(=O)Nc3c(C)cccc3C)c2)n1` [compound 2583] the activation at 50 µM was 181 to 352%.
Compound `COc1ncc(NC(=O)c2cn(C(C)(C)C)nn2)cc1S(=O)(=O)Nc1c(C)cccc1C` [compound 2755] has an activation at 50 µM of 151 to 180%.
`COc1ncc(NC(=O)c2ccn[nH]2)cc1S(=O)(=O)Nc1c(C)cccc1C` [compound 2709] was tested, and the activation at 50 µM was 120 to 150%.
In the case of `COc1ncc(NC(=O)c2cnc(C)s2)cc1S(=O)(=O)Nc1c(C)cccc1C` [compound 2661], the activation at 50 µM is reported as 151 to 180%.
`COc1ncc(NC(=O)c2csc(-c3ccccc3)n2)cc1S(=O)(=O)Nc1ccnc(C(F)(F)F)c1` [compound 1895] was tested, and the EC50 was 20 to 100 µM and the Emax was 160 to 199%.
Work on `COc1ncc(NC(=O)c2ccn(C3CC3)n2)cc1S(=O)(=O)Nc1c(C)cccc1C` [compound 2562] yielded an activation at 50 µM of 181 to 352%.
Work on `COc1ncc(NC(=O)c2coc(-c3ccccc3)n2)cc1S(=O)(=O)Nc1cc(C(F)(F)F)n[nH]1` [compound 2156] yielded an EC50 of 20 to 100 µM and an Emax of 200 to 300%.
In the case of `COc1ncc(NC(=O)c2ncoc2C)cc1S(=O)(=O)Nc1ccc(Cl)cc1` [compound 1959, N-(5-(N-(4-chlorophenyl)sulfamoyl)-6-methoxypyridin-3-yl)-5-methyloxazole-4-carboxamide], the EC50 is reported as 10 to 20 µM and the Emax is reported as 160 to 199%.
`COc1ncc(NC(=O)c2ccnc(N3CCCCC3)c2)cc1S(=O)(=O)Nc1c(C)cccc1C` [compound 2729] showed an activation at 50 µM of 181 to 352%.
With `COc1ncc(NC(=O)c2cc(C(C)C)no2)cc1S(=O)(=O)Nc1c(C)cccc1C` [compound 2555] the activation at 50 µM was 181 to 352%.
Compound `COc1ncc(NC(=O)c2ncc(-c3ccccc3)o2)cc1S(=O)(=O)Nc1c(C#N)cccc1C(F)(F)F` [compound 1358, N-(5-(N-(2-cyano-6-(trifluoromethyl)phenyl)sulfamoyl)-6-methoxypyridin-3-yl)-5-phenyloxazole-2-carboxamide] has an EC50 of 20 to 100 µM and an Emax of 200 to 300%.
`COc1ncc(NC(=O)c2ccc3c(c2)NC(=O)CC3)cc1S(=O)(=O)Nc1c(C)cccc1C` [compound 2677] showed an activation at 50 µM of 120 to 150%.
`COc1ncc(NC(=O)c2csc(Br)n2)cc1S(=O)(=O)Nc1c(C)cccc1C` [compound 2502] was tested, and the EC50 was 10 to 20 µM and the Emax was 119 to 159%.
For `COc1ncc(NC(=O)c2ccc(C(C)(C)O)cc2)cc1S(=O)(=O)Nc1c(C)cccc1C` [compound 2787], the activation at 50 µM was 151 to 180%.
For `COc1ncc(NC(=O)c2ncc(-c3ccccc3)o2)cc1S(=O)(=O)Nc1ccc2cnoc2c1` [compound 1525], the EC50 was 20 to 100 µM and the Emax was 200 to 300%.
Compound `CCCc1onc(C)c1C(=O)Nc1cnc(OC)c(S(=O)(=O)Nc2c(C)cccc2C)c1` [compound 2726] has an activation at 50 µM of 181 to 352%.
For `COc1ncc(NC(=O)c2coc(-c3ccccc3)n2)cc1S(=O)(=O)Nc1ccc(F)c(F)c1C` [compound 2000], the EC50 was 10 to 20 µM and the Emax was 200 to 300%.
`COc1ncc(NC(=O)c2nn(C)c3ccccc23)cc1S(=O)(=O)Nc1c(C)cccc1C` [compound 1423, N-(5-(N-(2,6-dimethylphenyl)sulfamoyl)-6-methoxypyridin-3-yl)-1-methyl-1H-indazole-3-carboxamide] was tested, and the EC50 was under 10 µM and the Emax was 160 to 199%.
With `COc1ncc(NC(=O)c2csc(-c3ccccc3)n2)cc1S(=O)(=O)Nc1sc2c(c1C#N)CCCC2` [compound 2088] the EC50 was 20 to 100 µM and the Emax was 200 to 300%.
`COc1ncc(NC(=O)c2cnc(C(F)(F)F)s2)cc1S(=O)(=O)Nc1c(C)cccc1C` [compound 2660] showed an activation at 50 µM of 120 to 150%.
Work on `COc1ncc(NC(=O)c2ccc(CN3CCCC3)cc2)cc1S(=O)(=O)Nc1c(C)cccc1C` [compound 2751] yielded an activation at 50 µM of 120 to 150%.
`[2H]c1c([2H])c([2H])c(C([2H])([2H])[2H])c(NS(=O)(=O)c2cc(NC(=O)c3csc(-c4ccccc4)n3)cnc2OC)c1[2H]` [compound 2492] showed an EC50 of under 10 µM and an Emax of 119 to 159%.
With `COc1ncc(NC(=O)c2csc(-c3ccccc3)n2)cc1S(=O)(=O)Nc1c(C#N)cnn1C` [compound 1911] the EC50 was 20 to 100 µM and the Emax was 119 to 159%.
`COc1cc(NS(=O)(=O)c2cc(NC(=O)c3csc(-c4ccccc4)n3)cnc2OC)ccn1` [compound 1878] showed an EC50 of 20 to 100 µM and an Emax of 119 to 159%.
`COc1ncc(NC(=O)c2ocnc2C)cc1S(=O)(=O)Nc1c(C)cccc1C` [compound 2733] showed an activation at 50 µM of 151 to 180%.
Compound `COc1ncc(NC(=O)c2ccnn2CC(F)(F)F)cc1S(=O)(=O)Nc1c(C)cccc1C` [compound 2651] has an activation at 50 µM of 181 to 352%.
`COc1ncc(NC(=O)c2csc(-c3ccccc3)n2)cc1S(=O)(=O)Nc1ccc(Cl)cn1` [compound 1385, N-(5-(N-(5-chloropyridin-2-yl)sulfamoyl)-6-methoxypyridin-3-yl)-2-phenylthiazole-4-carboxamide] showed an EC50 of 10 to 20 µM and an Emax of 160 to 199%.
Work on `COc1ncc(NC(=O)c2cc3c(C)nn(C)c3s2)cc1S(=O)(=O)Nc1c(C)cccc1C` [compound 1380, N-(5-(N-(2,6-dimethylphenyl)sulfamoyl)-6-methoxypyridin-3-yl)-1,3-dimethyl-1H-thieno[2,3-c]pyrazole-5-carboxamide] yielded an EC50 of under 10 µM and an Emax of over 300%.
`COc1cccc(C)c1NS(=O)(=O)c1cc(NC(=O)c2coc(-c3ccccc3)n2)cnc1OC` [compound 1484, N-(6-methoxy-5-(N-(2-methoxy-6-methylphenyl)sulfamoyl)pyridin-3-yl)-2-phenyloxazole-4-carboxamide] was tested, and the EC50 was under 10 µM and the Emax was 160 to 199%.
`COc1ncc(NC(=O)c2coc(C(C)C)n2)cc1S(=O)(=O)Nc1c(C)cccc1C` [compound 2697] gave an activation at 50 µM of 181 to 352%.
For `COc1ncc(NC(=O)c2cc(C)sn2)cc1S(=O)(=O)Nc1c(C)cccc1C` [compound 2716], the activation at 50 µM was 181 to 352%.
For `COc1ncc(NC(=O)c2cn[nH]c2C)cc1S(=O)(=O)Nc1c(C)cccc1C` [compound 2724], the activation at 50 µM was 120 to 150%.
`COc1ncc(NC(=O)c2ncc(-c3ccccc3)o2)cc1S(=O)(=O)Nc1c(C(C)C)ccnc1C(C)C` [compound 1808] was tested, and the EC50 was 10 to 20 µM and the Emax was 200 to 300%.
In the case of `COc1ncc(NC(=O)c2ccc3nccnc3c2)cc1S(=O)(=O)Nc1ccc(Cl)cc1` [compound 1198, N-(5-(N-(4-chlorophenyl)sulfamoyl)-6-methoxypyridin-3-yl) quinoxaline-6-carboxamide], the EC50 is reported as 10 to 20 µM and the Emax is reported as 160 to 199%.
`COc1ncc(NC(=O)c2cc(-n3ccnc3)ccn2)cc1S(=O)(=O)Nc1ccc(Cl)cc1` [compound 1203, N-(5-(N-(4-chlorophenyl)sulfamoyl)-6-methoxypyridin-3-yl)-4-(1H-imidazol-1-yl)picolinamide] showed an EC50 of 10 to 20 µM and an Emax of 160 to 199%.
Compound `COc1ncc(NC(=O)c2ncc(-c3ccccc3)o2)cc1S(=O)(=O)Nc1ccc(F)c(F)c1C` [compound 2366] has an EC50 of under 10 µM and an Emax of 160 to 199%.
For `CCc1cccc(CC)c1NS(=O)(=O)c1cc(NC(=O)c2csc(-c3ccccc3)n2)cnc1OC` [compound 1418, N-(5-(N-(2,6-diethylphenyl)sulfamoyl)-6-methoxypyridin-3-yl)-2-phenylthiazole-4-carboxamide], the EC50 was under 10 µM and the Emax was 119 to 159%.
`COc1ncc(NC(=O)c2cccc(CO)c2)cc1S(=O)(=O)Nc1c(C)cccc1C` [compound 2767] was tested, and the activation at 50 µM was 181 to 352%.
In the case of `COc1ncc(NC(=O)c2cc(C)[nH]n2)cc1S(=O)(=O)Nc1c(C)cccc1C` [compound 2749], the activation at 50 µM is reported as 151 to 180%.
`COc1cc(C(=O)Nc2cnc(OC)c(S(=O)(=O)Nc3c(C)cccc3C)c2)n(C)n1` [compound 2627] gave an activation at 50 µM of 151 to 180%.
With `COc1ncc(NC(=O)c2ccc3c(c2)CC(=O)N3)cc1S(=O)(=O)Nc1c(C)cccc1C` [compound 2523] the activation at 50 µM was 181 to 352%.
`COc1ncc(NC(=O)c2cccc3c2C(=O)NC3)cc1S(=O)(=O)Nc1c(C)cccc1C` [compound 2719] gave an activation at 50 µM of 151 to 180%.
Work on `COc1ncc(NC(=O)c2csc(-c3cccc(Cl)n3)n2)cc1S(=O)(=O)Nc1c(C)cccc1C` [compound 2445] yielded an EC50 of under 10 µM and an Emax of 160 to 199%.
`COc1ncc(NC(=O)c2cccc(N3CCN(C)CC3)c2)cc1S(=O)(=O)Nc1c(C)cccc1C` [compound 2633] showed an activation at 50 µM of 181 to 352%.
`COc1ncc(NC(=O)c2cn(C)nc2C(F)(F)F)cc1S(=O)(=O)Nc1c(C)cccc1C` [compound 2608] was tested, and the activation at 50 µM was 151 to 180%.
